Measurements from patent publication US20260132126A1, “IMIDAZOLE DERIVATIVES” (SANWA KAGAKU KENKYUSHO CO., LTD., priority 2022, published 2026).

Biological target: T1, human α1A adrenergic receptor (Homo sapiens, UniProt P35348)
T1 construct: host or cells: GeneBLAzer ADRA1A-NFAT-bla CHO-K1 cells
T1 sequence (P35348 1-466): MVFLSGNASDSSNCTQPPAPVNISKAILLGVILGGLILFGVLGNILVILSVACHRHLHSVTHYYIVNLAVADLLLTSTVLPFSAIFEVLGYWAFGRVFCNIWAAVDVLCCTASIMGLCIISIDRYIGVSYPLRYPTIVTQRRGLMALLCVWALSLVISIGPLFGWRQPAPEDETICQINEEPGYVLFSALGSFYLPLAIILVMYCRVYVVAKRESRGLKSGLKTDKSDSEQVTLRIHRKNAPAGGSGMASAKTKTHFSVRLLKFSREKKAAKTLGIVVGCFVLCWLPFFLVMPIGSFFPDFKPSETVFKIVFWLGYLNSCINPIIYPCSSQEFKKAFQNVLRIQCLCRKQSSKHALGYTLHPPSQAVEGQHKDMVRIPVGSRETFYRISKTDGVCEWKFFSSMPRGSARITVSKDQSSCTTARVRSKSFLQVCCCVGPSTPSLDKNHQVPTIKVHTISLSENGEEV
Assay: Ca2+ mobilization assay in human α1A adrenergic receptor-expressing cells
Format: cell-based
Set-up: Emax: dose or concentration left out as unconfirmed
Settings: for Emax at 10 µM: % activation at 10 μmol/L test compound, 100 μmol/L norepinephrine = 100%, well without test compound = 0%; for EC50: CHO-K1 cells expressing human α1A adrenergic receptor, Fluo-4 fluorescence, concentration giving 50% response of Emax, 4-parameter logistic regression
Method: CHO-K1 cells that highly express a human α1A adrenergic receptor (GeneBLAzer™ ADRA1A-NFAT-bla CHO-K1 Cells) were purchased from Thermo Fisher Scientific, Inc., and cultured according to the instructions.
The cultured human α1A adrenergic receptor-expressing cells were washed with D-PBS, then replaced with a loading buffer (2 μmol/L Fluo-4/AM, 1× PowerLoad, 2.5 mmol/L Probenecid-containing DMEM (high-glucose)) and incubated at 37° C. for 60 minutes in a 5% CO2 incubator. The cells were detached using 0.05% trypsin-EDTA solution, and suspended in an assay buffer ([…], 0.054 mol/L KCl, 1.8 mmol/L CaCl2), 1 mmol/L MgSO4, 0.11 mol/L glucose, 0.01 mol/L NaH2PO4·2H2O, […], pH 7.3) to be 500,000 cells/mL.
Test compounds were dissolved in dimethylsulfoxide, and diluted with an assay buffer containing 0.3% BSA. The final concentrations of the test compounds were set to fall within the range of 0.1 nmol/L to 10 μmol/L. As a reference compound, norepinephrine was set to have a final concentration within the range of 0.01 nmol/L to 100 μmol/L.
On a 384-well clear bottom black plate coated with poly-D-lysine (Corning Inc.), the above-described cell-suspended solution was dispersed in 40 μL each (20,000 cells/well) and allowed to stand for 10 minutes. The plate was transferred to a fluorescent imaging plate reader (FDSS7000, Hamamatsu Photonics K.K.), and measurements were started. After 1 minute from the start of the measurements, 20 μL of the test compound solutions or norepinephrine solution (total amount: 60 μL/well) was added to each well of the plate (final concentration: 0.1% BSA, 0.1% dimethylsulfoxide), and the temporal change in fluorescence intensity of Fluo-4 was further measured for 5 minutes (Ex 480 nm/Em 540 nm).
The normalized values (% activation) were used for subsequent analyses.
Emax values and EC50 values were calculated by creating a concentration-response curve of the test compounds using a 4-parameter logistic regression with XLFit, Emax value being defined as % activation of test compound at the concentration of 10 μmol/L, and EC50 value being defined as the concentration in which 50% response of the Emax values is shown.

Compound	Emax at 10 µM	EC50	Emax
c1ccc(-c2cnccn2)c(NCc2c[nH]cn2)c1 [Example 26, N-((1H-imidazol-4-yl)methyl)-2-(pyrazin-2-yl)aniline]	105%	1200 pM	–
CC(Nc1ccccc1-c1cscn1)c1c[nH]cn1 (single isomer, unassigned; (+)) [Example 40, (+)-N-(1-(1H-Imidazol-4-yl)ethyl)-2-(thiazol-4-yl)aniline]	111%	600 pM	–
Cc1ccc(-c2cncnc2C)c(NCc2c[nH]cn2)c1 [Example 20, N-((1H-imidazol-4-yl)methyl)-5-methyl-2-(4-methylpyrimidin-5-yl)aniline]	91%	2400 pM	–
c1csc(-c2cscc2NCc2c[nH]cn2)n1 [Example 12, N-((1H-imidazol-4-yl)methyl)-4-(thiazol-2-yl)thiophen-3-amine]	101%	400 pM	–
COc1n[nH]cc1-c1ccc(F)cc1NCc1c[nH]cn1 [Example 34, N-((1H-imidazol-4-yl)methyl)-5-fluoro-2-(3-methoxy-1H-pyrazol-4-yl)aniline]	91%	1300 pM	–
c1cnc(-c2cscc2NCc2c[nH]cn2)cn1 [Example 13, N-((1H-imidazol-4-yl)methyl)-4-(pyrazin-2-yl)thiophen-3-amine]	101%	1100 pM	–
COc1cncc(-c2cscc2NCc2c[nH]cn2)n1 [Example 31, N-((1H-imidazol-4-yl)methyl)-4-(6-methoxypyrazin-2-yl)thiophen-3-amine]	103%	800 pM	–
COc1ncccc1-c1ccccc1OCc1c[nH]cn1 [Example 52]	90%	2700 pM	–
Cc1scnc1-c1cscc1NCc1c[nH]cn1 [Example 24, N-((1H-imidazol-4-yl)methyl)-4-(5-methylthiazol-4-yl)thiophen-3-amine]	101%	200 pM	–
Cc1ccc(-c2c[nH]nc2C)c(OCc2c[nH]cn2)c1 [Example 59]	101%	400 pM	–
c1ccc(-c2cncnc2)c(OCc2c[nH]cn2)c1 [Example 69]	–	900 pM	104%
Cc1ccncc1-c1ccccc1OCc1c[nH]cn1 [Example 72]	–	7400 pM	106%
COc1cccc(-c2cscc2NCc2c[nH]cn2)n1 [Example 22, N-((1H-imidazol-4-yl)methyl)-4-(6-methoxypyridin-2-yl)thiophen-3-amine]	88%	1200 pM	–
COc1ccncc1-c1ccc(C)cc1OCc1c[nH]cn1 [Example 62]	91%	2400 pM	–
c1cncc(-c2cscc2NCc2c[nH]cn2)c1 [Example 3, N-((1H-imidazol-4-yl)methyl)-4-(pyridin-3-yl)thiophen-3-amine]	92%	300 pM	–
COc1ccnc(-c2cscc2NCc2c[nH]cn2)c1 [Example 21, N-((1H-imidazol-4-yl)methyl)-4-(4-methoxypyridin-2-yl)thiophen-3-amine]	92%	200 pM	–
Cc1ncncc1-c1ccccc1NCc1c[nH]cn1 [Example 19, N-((1H-imidazol-4-yl)methyl)-2-(4-methylpyrimidin-5-yl)aniline]	102%	3100 pM	–
Fc1cncc(-c2ccccc2OCc2c[nH]cn2)c1 [Example 51]	102%	1800 pM	–
CC(Nc1ccccc1-c1cscn1)c1c[nH]cn1 (stereo not drawn) [Example 38, N-(1-(1H-imidazol-4-yl)ethyl)-2-(thiazol-4-yl)aniline]	–	800 pM	107%
c1ccc(-c2cscc2NCc2c[nH]cn2)nc1 [Example 30, N-((1H-imidazol-4-yl)methyl)-4-(pyridin-2-yl)thiophen-3-amine]	97%	700 pM	–
COc1ncccc1-c1cscc1NCc1c[nH]cn1 [Example 43]	90%	600 pM	–
